Each structure is given as a SMILES string.

This test concerns the target human mGlu4 receptor (Homo sapiens (Human), UniProt Q14833). Kind of test: Ca2+ mobilization in vitro assay on recombinant human mGlu4 expressed in HEK293 cells (mGlu4 PAM). The note with it: for EC50: HEK293 cells stably expressing human mGlu4, L-AP4 added at EC20, read-out: EC50 (nM) mGlu4PAM; for Eff. (%): maximal response in % of the maximal stimulatory effect obtained with saturating concentrations of L-AP4. Format: cell-based. As to the method:
Determination of EC50 Values Using a Ca2+ Mobilization In Vitro Assay on Recombinant Human mGlu4 Expressed in HEK293 Cells:
A monoclonal HEK-293 cell line stably transfected with a cDNA encoding for the human mGlu4 receptor was generated; for the work with mGlu4 Positive Allosteric Modulators (PAMs), a cell line with low receptor expression levels and low constitutive receptor activity was selected to allow the differentiation of agonistic versus PAM activity. Cells were cultured according to standard protocols (Freshney, 2000) in Dulbecco's Modified Eagle Medium with high glucose supplemented with 1 mM glutamine, 10% (vol/vol) heat-inactivated bovine calf serum, Penicillin/Streptomycin, 50 μg/ml hygromycin and 15 μg/ml blasticidin (all cell culture reagents and antibiotics from Invitrogen, Basel, Switzerland).
About 24 hrs before an experiment, 5×10^4 cells/well were seeded in poly-D-lysine coated, black/clear-bottomed 96-well plates. The cells were loaded with 2.5 μM Fluo-4AM in loading buffer (1×HBSS, 20 mM HEPES) for 1 hr at 37° C. and washed five times with loading buffer. The cells were transferred into a Functional Drug Screening System 7000 (Hamamatsu, Paris, France), and 11 half logarithmic serial dilutions of test compound at 37° C. were added and the cells were incubated for 10-30 min. with on-line recording of fluorescence. Following this pre-incubation step, the agonist (2S)-2-amino-4-phosphonobutanoic acid (L-AP4) was added to the cells at a concentration corresponding to EC20 with on-line recording of fluorescence; in order to account for day-to-day variations in the responsiveness of cells, the EC20 of L-AP4 was determined immediately ahead of each experiment by recording of a full dose-response curve of L-AP4.
Responses were measured as peak increase in fluorescence minus basal (i.e. fluorescence without addition of L-AP4), normalized to the maximal stimulatory effect obtained with saturating concentrations of L-AP4. Graphs were plotted with the % maximal stimulatory using XLfit, a curve fitting program that iteratively plots the data using Levenburg Marquardt algorithm. The single site competition analysis equation used was y=A+((B−A)/(1+((x/C)D))), where y is the % maximal stimulatory effect, A is the minimum y, B is the maximum y, C is the EC50, x is the log 10 of the concentration of the competing compound and D is the slope of the curve (the Hill Coefficient). From these curves the EC50 (drug concentration at which 50% of the maximal receptor activation was achieved), the Hill coefficient as well as the maximal response in % of the maximal stimulatory effect obtained with saturating concentrations of L-AP4 were calculated (see FIG. 1).
A depression of the signal observed after addition of the EC20 concentration of L-AP4 was indicative of an inhibitory activity of the test compound. • FIG. 1: Illustration of the experimental outline for mGlu4 PAM Ca2+ mobilization screening assay and the determination of EC50 and % Emax values.

human mGlu4 receptor, sequence (Q14833 33-912): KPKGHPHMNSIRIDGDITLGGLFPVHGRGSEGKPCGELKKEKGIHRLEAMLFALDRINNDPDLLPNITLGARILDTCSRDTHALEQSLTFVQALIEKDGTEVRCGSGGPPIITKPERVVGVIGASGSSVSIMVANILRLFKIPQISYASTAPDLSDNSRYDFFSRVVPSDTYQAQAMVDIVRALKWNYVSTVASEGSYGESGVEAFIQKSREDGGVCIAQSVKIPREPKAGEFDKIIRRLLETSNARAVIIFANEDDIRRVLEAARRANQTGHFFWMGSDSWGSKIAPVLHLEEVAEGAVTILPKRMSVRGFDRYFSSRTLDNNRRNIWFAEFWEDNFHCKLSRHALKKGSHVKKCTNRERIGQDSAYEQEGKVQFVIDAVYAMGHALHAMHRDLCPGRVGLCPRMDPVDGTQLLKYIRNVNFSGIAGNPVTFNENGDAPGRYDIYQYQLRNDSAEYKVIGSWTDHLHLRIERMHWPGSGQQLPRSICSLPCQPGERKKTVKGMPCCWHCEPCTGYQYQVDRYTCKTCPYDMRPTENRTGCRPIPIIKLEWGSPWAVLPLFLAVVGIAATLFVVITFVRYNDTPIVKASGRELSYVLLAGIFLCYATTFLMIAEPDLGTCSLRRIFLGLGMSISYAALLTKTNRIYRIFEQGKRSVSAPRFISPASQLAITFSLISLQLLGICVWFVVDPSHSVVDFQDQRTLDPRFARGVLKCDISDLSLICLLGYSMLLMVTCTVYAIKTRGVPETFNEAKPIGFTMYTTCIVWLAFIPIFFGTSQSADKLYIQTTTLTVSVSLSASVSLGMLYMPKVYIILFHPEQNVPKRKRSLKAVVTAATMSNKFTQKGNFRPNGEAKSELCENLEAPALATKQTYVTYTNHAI

Turning to `O=c1c2cccc3c2n(c(=O)n1-c1ncc(C#Cc2ccccc2)cc1Cl)CC3` [Example 47, 2-(3-Chloro-5-(phenylethynyl)pyridin-2-yl)-5,6-dihydro-1H-pyrrolo[3,2,1-ij]quinazoline-1,3(2H)-dione], the 50% effective concentration (EC50) was 187 nM and the “Eff. (%)” value came to 110%. As for `Cc1cccc2c(=O)n(-c3c(F)cc(C#Cc4cccnc4)cc3F)c(=O)n(C)c12` [Example 73, 3-[2,6-Difluoro-4-[2-(3-pyridyl)ethynyl]phenyl]-1,8-dimethyl-quinazoline-2,4-dione], the EC50 came out at 154 nM and the “Eff. (%)” value came to 197%. As to `Cc1ccc2c(=O)n(-c3c(F)cc(C#Cc4ccccc4)cc3F)c(=O)n(C)c2c1` [Example 26, 3-[2,6-Difluoro-4-(2-phenylethynyl)phenyl]-1,7-dimethyl-quinazoline-2,4-dione], the concentration giving a half-maximal response (EC50) amounted to 115 nM and the “Eff. (%)” value came out at 108%.

On to `O=c1c2cccc3c2n(c(=O)n1-c1ccc(C#Cc2ccccc2)cc1Cl)CC3` [Example 12, 2-(2-Chloro-4-(phenylethynyl)phenyl)-5,6-dihydro-1H-pyrrolo[3,2,1-ij]quinazoline-1,3(2H)-dione], for which the EC50 came out at 80 nM and the “Eff. (%)” value amounted to 106%. For `Cc1ccnc2c(=O)n(-c3c(F)cc(C#Cc4ccccc4)cc3F)c(=O)n(C)c12` [Example 38, 3-[2,6-Difluoro-4-(2-phenylethynyl)phenyl]-1,8-dimethyl-pyrido[3,2-d]pyrimidine-2,4-dione] the same measures were 108 nM and 108%.

As to `Cn1cnc2c1c(=O)n(-c1ccc(C#Cc3ccccc3)cc1Cl)c(=O)n2C` [Example 11, 1-[2-Chloro-4-(2-phenylethynyl)phenyl]-3,7-dimethyl-purine-2,6-dione], the EC50 came out at 175 nM and the “Eff. (%)” value is 122%.

On to `Cn1c(=O)n(-c2ccc(C#Cc3ccccc3)cc2Cl)c(=O)c2cnccc21` [Example 10, 3-[2-Chloro-4-(2-phenylethynyl)phenyl]-1-methyl-pyrido[4,3-d]pyrimidine-2,4-dione], for which the EC50 is 399 nM and the “Eff. (%)” value was determined as 180%. Turning to `CC(C)n1c(=O)n(-c2c(F)cc(C#Cc3cccnc3)cc2Cl)c(=O)c2nn(C)cc21` [Example 58, 6-[2-Chloro-6-fluoro-4-[2-(3-pyridyl)ethynyl]phenyl]-4-isopropyl-2-methyl-pyrazolo[4,3-d]pyrimidine-5,7-dione], the EC50 turned out to be 37 nM and the “Eff. (%)” value is 120%. On to `Cn1c(=O)n(-c2ccc(C#Cc3ccccc3)cc2Cl)c(=O)c2ncccc21` [Example 9, 3-[2-Chloro-4-(2-phenylethynyl)phenyl]-1-methyl-pyrido[3,2-d]pyrimidine-2,4-dione], for which the EC50 is 308 nM and the “Eff. (%)” value came out at 167%. `O=c1[nH]c2ncsc2c(=O)n1-c1c(F)cc(C#Cc2ccccc2)cc1F` [Example 31, 6-[2,6-Difluoro-4-(2-phenylethynyl)phenyl]-4H-thiazolo[4,5-d]pyrimidine-5,7-dione]: the “Eff. (%)” value turned out to be 85%.

On to `Cc1csc2c(=O)n(-c3c(F)cc(C#Cc4cccnc4)cc3F)c(=O)n(C)c12` [Example 28, 3-[2,6-Difluoro-4-[2-(3-pyridyl)ethynyl]phenyl]-1,7-dimethyl-thieno[3,2-d]pyrimidine-2,4-dione], for which the EC50 turned out to be 29 nM and the “Eff. (%)” value is 86%. For the compound `Cn1c(=O)n(-c2c(F)cc(C#Cc3ccccc3)cc2F)c(=O)c2cccnc21` [Example 25, 3-(2,6-Difluoro-4-phenylethynyl-phenyl)-1-methyl-1H-pyrido[2,3-d]pyrimidine-2,4-dione], the concentration for a half-maximal effect (EC50) amounted to 89 nM and the “Eff. (%)” value turned out to be 109%. For `O=c1c2cccc3c2n(c(=O)n1-c1c(F)cc(C#Cc2cccnc2)cc1F)CC3` [Example 30, 2-(2,6-Difluoro-4-(pyridin-3-ylethynyl)phenyl)-5,6-dihydro-1H-pyrrolo[3,2,1-ij]quinazoline-1,3(2H)-dione], in that order: 91 nM and 89%. `O=c1c2cccc3c2n(c(=O)n1-c1c(F)cc(C#Cc2ccccc2)cc1F)CC3` [Example 29, 2-(2,6-Difluoro-4-(phenylethynyl)phenyl)-5,6-dihydro-1H-pyrrolo[3,2,1-ij]quinazoline-1,3(2H)-dione]: the EC50 is 52 nM and the “Eff. (%)” value was found to be 78%. In the case of `COc1cccc2c(=O)n(-c3c(F)cc(C#Cc4ccccc4)cc3F)c(=O)n(C)c12` [Example 70, 3-[2,6-Difluoro-4-(2-phenylethynyl)phenyl]-8-methoxy-1-methyl-quinazoline-2,4-dione], the EC50 came out at 38 nM and the “Eff. (%)” value was determined as 152%. For `O=c1c2ccccc2n(C2COC2)c(=O)n1-c1c(F)cc(C#Cc2ccccc2)cc1F` [Example 66, 3-[2,6-Difluoro-4-(2-phenylethynyl)phenyl]-1-(oxetan-3-yl)quinazoline-2,4-dione], the EC50 is 75 nM and the “Eff. (%)” value was 184%. With `Cn1c(=O)n(-c2ccc(C#Cc3ccccc3)cc2Cl)c(=O)c2cccnc21` [Example 7, 3-[2-Chloro-4-(2-phenylethynyl)phenyl]-1-methyl-pyrido[2,3-d]pyrimidine-2,4-dione], the EC50 stood at 222 nM and the “Eff. (%)” value came to 101%.

Take `CC(C)n1c(=O)n(-c2ccc(C#Cc3ccccc3)cc2Cl)c(=O)c2nccnc21` [Example 21, 3-[2-Chloro-4-(2-phenylethynyl)phenyl]-1-isopropyl-pteridine-2,4-dione]: the EC50 worked out at 52 nM and the “Eff. (%)” value is on record as 89%. For `CC(C)n1c(=O)n(-c2c(F)cc(C#Cc3ccccc3)cc2F)c(=O)c2c[nH]nc21` [Example 64, 5-[2,6-Difluoro-4-(2-phenylethynyl)phenyl]-7-isopropyl-2H-pyrazolo[3,4-d]pyrimidine-4,6-dione] the same measures were 121 nM and 120%.

With `CC(C)n1c(=O)n(-c2c(F)cc(C#Cc3ccccc3)cc2F)c(=O)c2nccnc21` [Example 68, 3-[2,6-Difluoro-4-(2-phenylethynyl)phenyl]-1-isopropyl-pteridine-2,4-dione], the concentration giving a half-maximal response (EC50) is 48 nM and the “Eff. (%)” value is recorded as 225%. For `CC(C)n1c(=O)n(-c2ncc(C#Cc3ccccc3)cc2Cl)c(=O)c2nn(C)cc21` [Example 60, 6-[3-Chloro-5-(2-phenylethynyl)-2-pyridyl]-4-isopropyl-2-methyl-pyrazolo[4,3-d]pyrimidine-5,7-dione], in that order: 189 nM and 150%. For `Cc1csc2c(=O)n(-c3ccc(C#Cc4ccccc4)cc3Cl)c(=O)n(C)c12` [Example 20, 3-[2-Chloro-4-(2-phenylethynyl)phenyl]-1,7-dimethyl-thieno[3,2-d]pyrimidine-2,4-dione], in that order: 50 nM and 74%.

Take `CC(C)n1c(=O)n(-c2c(F)cc(C#Cc3ccccc3)cc2C(F)(F)F)c(=O)c2ccccc21` [Example 72, 3-[2-Fluoro-4-(2-phenylethynyl)-6-(trifluoromethyl)phenyl]-1-isopropyl-quinazoline-2,4-dione]: the half-maximal effective concentration (EC50) amounted to 63 nM and the “Eff. (%)” value came to 134%.

As usually defined, the EC50 is the midpoint of the concentration-response curve.

For the origin of these results see patent US9676732B2, “Ethynyl derivatives” (Hoffmann-La Roche Inc., priority 2013, dated 2017).
